In PubChem BioAssay AID1745844 (Carcinogenic Potency Database (CPDB), 2022):
Activity calls are given as the source filed them. How the calls were made is not given here.

System: rodent lifetime carcinogenesis bioassay, tumor incidence TD50
Experiment: carcinogenic potency in animals, long-term in vivo studies, CPDB compilation (AID 1745844)

O=C1OC(O)C(C(Cl)Cl)=C1Cl (centres undefined)
TD50 (rat, strain Wistar, females, in drinking water, site: adrenal gland, lesion: cortical adenoma, dosed 104 weeks, study length 104 weeks): 10.6 mg/kg/day
TD50 (rat, strain Wistar, females, in drinking water, site: all sites, lesion: lymphoma and leukemia, combined, dosed 104 weeks, study length 104 weeks): 41.5 mg/kg/day
TD50 (rat, strain Wistar, females, in drinking water, site: liver, lesion: cholangioadenoma/carcinoma, dosed 104 weeks, study length 104 weeks): 2.73 mg/kg/day
TD50 (rat, strain Wistar, females, in drinking water, site: liver, lesion: cholangiocarcinoma, dosed 104 weeks, study length 104 weeks): 122 mg/kg/day
TD50 (rat, strain Wistar, females, in drinking water, site: liver, lesion: cholangioma, dosed 104 weeks, study length 104 weeks): 2.73 mg/kg/day
TD50 (rat, strain Wistar, females, in drinking water, site: liver, lesion: hepatocellular adenoma, dosed 104 weeks, study length 104 weeks): 16 mg/kg/day
TD50 (rat, strain Wistar, females, in drinking water, site: liver, lesion: hepatocellular tumor, dosed 104 weeks, study length 104 weeks): 14.9 mg/kg/day
TD50 (rat, strain Wistar, females, in drinking water, site: mammary gland, lesion: adenocarcinoma, dosed 104 weeks, study length 104 weeks): 14 mg/kg/day
TD50 (rat, strain Wistar, females, in drinking water, site: mammary gland, lesion: fibroadenoma, dosed 104 weeks, study length 104 weeks): 5.13 mg/kg/day
TD50 (rat, strain Wistar, females, in drinking water, site: mammary gland, lesion: several types, types named in the paper, dosed 104 weeks, study length 104 weeks): 13 mg/kg/day
TD50 (rat, strain Wistar, females, in drinking water, site: thyroid gland, lesion: follicular-cell adenoma, dosed 104 weeks, study length 104 weeks): 0.645 mg/kg/day
TD50 (rat, strain Wistar, females, in drinking water, site: thyroid gland, lesion: follicular-cell carcinoma, dosed 104 weeks, study length 104 weeks): 5.2 mg/kg/day
TD50 (rat, strain Wistar, females, in drinking water, site: thyroid gland, lesion: several types, types named in the paper, dosed 104 weeks, study length 104 weeks): 0.741 mg/kg/day
TD50 (rat, strain Wistar, males, in drinking water, site: adrenal gland, lesion: cortical adenoma, dosed 104 weeks, study length 104 weeks): 9.68 mg/kg/day
TD50 (rat, strain Wistar, males, in drinking water, site: all sites, lesion: lymphoma and leukemia, combined, dosed 104 weeks, study length 104 weeks): 53.1 mg/kg/day
TD50 (rat, strain Wistar, males, in drinking water, site: liver, lesion: cholangioma, dosed 104 weeks, study length 104 weeks): 31.4 mg/kg/day
TD50 (rat, strain Wistar, males, in drinking water, site: liver, lesion: hepatocellular adenoma, dosed 104 weeks, study length 104 weeks): 24.4 mg/kg/day
TD50 (rat, strain Wistar, males, in drinking water, site: liver, lesion: hepatocellular carcinoma, dosed 104 weeks, study length 104 weeks): 53.4 mg/kg/day
TD50 (rat, strain Wistar, males, in drinking water, site: liver, lesion: hepatocellular tumor, dosed 104 weeks, study length 104 weeks): 17.7 mg/kg/day
TD50 (rat, strain Wistar, males, in drinking water, site: lung, lesion: alveolar/bronchiolar adenoma, dosed 104 weeks, study length 104 weeks): 23.4 mg/kg/day
TD50 (rat, strain Wistar, males, in drinking water, site: pancreatic islets, lesion: islet-cell adenoma, dosed 104 weeks, study length 104 weeks): 16 mg/kg/day
TD50 (rat, strain Wistar, males, in drinking water, site: pancreatic islets, lesion: several types, types named in the paper, dosed 104 weeks, study length 104 weeks): 16.6 mg/kg/day
TD50 (rat, strain Wistar, males, in drinking water, site: thyroid gland, lesion: follicular-cell adenoma, dosed 104 weeks, study length 104 weeks): 0.532 mg/kg/day
TD50 (rat, strain Wistar, males, in drinking water, site: thyroid gland, lesion: follicular-cell carcinoma, dosed 104 weeks, study length 104 weeks): 3.25 mg/kg/day
TD50 (rat, strain Wistar, males, in drinking water, site: thyroid gland, lesion: several types, types named in the paper, dosed 104 weeks, study length 104 weeks): 0.678 mg/kg/day

CC(=O)O[C@]1(C(C)=O)CC[C@H]2[C@@H]3C=C(Cl)C4=CC(=O)CC[C@]4(C)[C@H]3CC[C@@]21C
TD50 (mouse, strain C3H (MTV+), females, in feed, site: mammary tissue, wider than the gland, lesion: one or several types, types not named, dosed 104 weeks, study length 104 weeks): 3.77 mg/kg/day

COc1cc(/C=C/C(=O)OCCc2ccccc2)ccc1O
carcinogen call (rat, strain Fischer 344, males, in feed, site: colon, lesion: one or several types, types not named, dosed 55 weeks, study length 55 weeks): negative (inactive)

CC(=O)Oc1c(C)c(C)c2c(c1C)CCC(C)(CCCC(C)CCCC(C)CCCC(C)C)O2 (centres undefined)
carcinogen call (rat, strain Charles River CD (Sprague-Dawley), females, in feed, site: any site (literature study), lesion: malignant tumor, dosed 104 weeks, study length 104 weeks): negative (inactive)
carcinogen call (rat, strain Charles River CD (Sprague-Dawley), females, in feed, site: any site (literature study), lesion: several types, types named in the paper, dosed 104 weeks, study length 104 weeks): negative (inactive)
carcinogen call (rat, strain Charles River CD (Sprague-Dawley), females, in feed, site: liver, lesion: one or several types, types not named, dosed 52 weeks, study length 52 weeks): negative (inactive)
carcinogen call (rat, strain Charles River CD (Sprague-Dawley), females, in feed, site: liver, lesion: one or several types, types not named, dosed 104 weeks, study length 104 weeks): negative (inactive)
TD50 (rat, strain Charles River CD (Sprague-Dawley), males, in feed, site: any site (literature study), lesion: malignant tumor, dosed 104 weeks, study length 104 weeks): 67800 mg/kg/day (inactive)
TD50 (rat, strain Charles River CD (Sprague-Dawley), males, in feed, site: any site (literature study), lesion: several types, types named in the paper, dosed 104 weeks, study length 104 weeks): 67800 mg/kg/day (inactive)
carcinogen call (rat, strain Charles River CD (Sprague-Dawley), males, in feed, site: liver, lesion: one or several types, types not named, dosed 52 weeks, study length 52 weeks): negative (inactive)
carcinogen call (rat, strain Charles River CD (Sprague-Dawley), males, in feed, site: liver, lesion: one or several types, types not named, dosed 104 weeks, study length 104 weeks): negative (inactive)

O=S(=O)([O-])[O-].[Cd+2]
carcinogen call (hamster, strain Syrian Golden, females, inhaled, site: lung, lesion: one or several types, types not named, dosed 61 weeks, study length 76 weeks): negative (inactive)
carcinogen call (hamster, strain Syrian Golden, females, inhaled, site: lung, lesion: one or several types, types not named, dosed 64 weeks, study length 77 weeks): negative (inactive)
carcinogen call (hamster, strain Syrian Golden, males, inhaled, site: lung, lesion: one or several types, types not named, dosed 61 weeks, study length 103 weeks): negative (inactive)
carcinogen call (hamster, strain Syrian Golden, males, inhaled, site: lung, lesion: one or several types, types not named, dosed 64 weeks, study length 113 weeks): negative (inactive)
TD50 (mouse, strain NMRI, females, inhaled, site: lung, lesion: adenocarcinoma, dosed 42 weeks, study length 96 weeks): 0.829 mg/kg/day (inactive)
carcinogen call (mouse, strain NMRI, females, inhaled, site: lung, lesion: adenocarcinoma, dosed 69 weeks, study length 94 weeks): negative (inactive)
carcinogen call (mouse, strain NMRI, females, inhaled, site: lung, lesion: adenoma, dosed 42 weeks, study length 96 weeks): negative (inactive)
carcinogen call (mouse, strain NMRI, females, inhaled, site: lung, lesion: adenoma, dosed 69 weeks, study length 94 weeks): negative (inactive)
carcinogen call (mouse, strain NMRI, females, inhaled, site: lung, lesion: several types, types named in the paper, dosed 42 weeks, study length 96 weeks): negative (inactive)
carcinogen call (mouse, strain NMRI, females, inhaled, site: lung, lesion: several types, types named in the paper, dosed 69 weeks, study length 94 weeks): negative (inactive)
TD50 (rat, strain Wistar, females, inhaled, site: lung, lesion: adenocarcinoma, dosed 78 weeks, study length 126 weeks): 0.112 mg/kg/day
TD50 (rat, strain Wistar, females, inhaled, site: lung, lesion: adenosquamous carcinoma, dosed 78 weeks, study length 126 weeks): 0.112 mg/kg/day
TD50 (rat, strain Wistar, females, inhaled, site: lung, lesion: alveolar/bronchiolar adenoma, dosed 78 weeks, study length 126 weeks): 0.18 mg/kg/day
TD50 (rat, strain Wistar, females, inhaled, site: lung, lesion: several types, types named in the paper, dosed 78 weeks, study length 126 weeks): 0.0174 mg/kg/day
TD50 (rat, strain Wistar, females, inhaled, site: lung, lesion: squamous-cell tumor, dosed 78 weeks, study length 126 weeks): 0.381 mg/kg/day
TD50 (rat, strain Wistar, males, inhaled, site: lung, lesion: adenocarcinoma, dosed 60 weeks, study length 134 weeks): 0.0537 mg/kg/day
TD50 (rat, strain Wistar, males, inhaled, site: lung, lesion: adenosquamous carcinoma, dosed 60 weeks, study length 134 weeks): 0.219 mg/kg/day
TD50 (rat, strain Wistar, males, inhaled, site: lung, lesion: alveolar/bronchiolar adenoma, dosed 60 weeks, study length 134 weeks): 0.219 mg/kg/day
TD50 (rat, strain Wistar, males, inhaled, site: lung, lesion: several types, types named in the paper, dosed 60 weeks, study length 134 weeks): 0.0289 mg/kg/day

Cc1noc(NS(=O)(=O)c2ccc(N)cc2)c1C
TD50 (mouse, strain B6C3F1, females, in feed, site: any site (literature study), lesion: several types, types named in the paper, dosed 103 weeks, study length 104 weeks): 8180 mg/kg/day
TD50 (mouse, strain B6C3F1, females, in feed, site: liver, lesion: hepatocellular adenoma + hepatocellular carcinoma + neoplastic nodule, dosed 103 weeks, study length 104 weeks): 2650 mg/kg/day
TD50 (mouse, strain B6C3F1, females, in feed, site: liver, lesion: hepatocellular carcinoma, dosed 103 weeks, study length 104 weeks): 2650 mg/kg/day (inactive)
TD50 (mouse, strain B6C3F1, females, in feed, site: lung, lesion: alveolar/bronchiolar adenoma + alveolar/bronchiolar carcinoma, dosed 103 weeks, study length 104 weeks): 11900 mg/kg/day
carcinogen call (mouse, strain B6C3F1, males, in feed, site: any site (literature study), lesion: several types, types named in the paper, dosed 103 weeks, study length 104 weeks): negative (inactive)
TD50 (mouse, strain B6C3F1, males, in feed, site: liver, lesion: hepatocellular adenoma + hepatocellular carcinoma + neoplastic nodule, dosed 103 weeks, study length 104 weeks): 6910 mg/kg/day
TD50 (mouse, strain B6C3F1, males, in feed, site: lung, lesion: alveolar/bronchiolar adenoma + alveolar/bronchiolar carcinoma, dosed 103 weeks, study length 104 weeks): 49500 mg/kg/day
carcinogen call (rat, strain Fischer 344, females, in feed, site: any site (literature study), lesion: several types, types named in the paper, dosed 103 weeks, study length 106 weeks): negative (inactive)
TD50 (rat, strain Fischer 344, males, in feed, site: any site (literature study), lesion: several types, types named in the paper, dosed 103 weeks, study length 105 weeks): 135 mg/kg/day (inactive)
TD50 (rat, strain Fischer 344, males, in feed, site: liver, lesion: hepatocellular adenoma + hepatocellular carcinoma + neoplastic nodule, dosed 103 weeks, study length 105 weeks): 26300 mg/kg/day
